In patent US20080009435A1, “Synthetic methods for aplidine and new antitumoral derivatives, methods of making and using them” (Pharma Mar, S.A., a Spain corporation, priority 2000, published 2008):
*1 amine or outer side, *2 acyl side, *3 side chain or, on linkers, in order; H or OH if unused. Where a SMILES comes first, the peptide text is derived from it. Bridges are numbered along the chain shown (N, C = ends). [ ]: non-standard residue; d: D form. The star is where a group is joined. ξ: configuration not given here. X1 = CC[C@H](C)[C@@H](N[*:1])[C@@H](O)CC(=O)O[C@H](C(=O)[C@H](C)C(=O)[*:2])C(C)C; X2 = CC[C@H](C)[C@@H](N[*:1])[C@@H](O)CC(=O)[*:2]; X3 = C[C@H](O[Si](C)(C)C(C)(C)C)C(=O)*; NMeY = CN[C@@H](Cc1ccc(O)cc1)C(=O)O; X6 = O=C1NC2CSC(CCCCC(=O)*)C2N1; dNMeL = CN[C@H](CC(C)C)C(=O)O; Hiv = CC(C)[C@H](O)C(=O)O; Isobutyryl = CC(C)C(=O)*; dLac = C[C@@H](O)C(=O)O; Hexanoyl = CCCCCC(=O)*; Boc = CC(C)(C)OC(=O)*; Lac = C[C@H](O)C(=O)O; CO = O=C([*:1])[*:2]; X5 = S=C(Nc1ccccc1)*; Butyryl = CCCC(=O)*; NHPh = c1ccc(N*)cc1; ξP = O=C(O)C1CCCN1; Ms = CS(=O)(=O)*; NHBu = CCCCN*

Assays:
[1] = test system: A549 human lung carcinoma; assay: Cytotoxicity IC50 (after Berjeron et al); conditions: Homo sapiens, A549, read-out: Cytotoxicity of aplidine derivatives IC50 (Molar) A549
Description: (§1) Methodology: after Berjeron et al, Biochem and Bioph Res. Comm., 1984, 121, 3, 848-854.
(§2) P388=Murine lymphoma. A549=human lung carcinoma. HT-29=human colon carcinoma. MEL-28=human melanoma.
(§3) A549=human lung carcinoma. HT-29=human colon carcinoma. MEL-28=human melanoma.

[2] = test system: HT-29 human colon carcinoma; assay: Cytotoxicity IC50 (after Berjeron et al); conditions: Homo sapiens, HT-29, read-out: Cytotoxicity of aplidine derivatives IC50 (Molar) HT29
Description: as §1, §2, §3

Compound	IC50 [1] [nM]	IC50 [2] [nM]
CC[C@H](C)[C@H]1NC(=O)[C@@H](NC(=O)[C@@H](CC(C)C)N(C)C(=O)CCCCC2SCC3NC(=O)NC32)[C@@H](C)OC(=O)[C@H](Cc2ccc(OC)cc2)N(C)C(=O)[C@@H]2CCCN2C(=O)[C@H](CC(C)C)NC(=O)[C@@H](C)C(=O)[C@H](C(C)C)OC(=O)C[C@@H]1O (stereo partly drawn) [8BISAPL1, [Biotin]^8-didemnin A] (X6-[dNMeL]T[X1]LP[NMeY](Me); ester 2-C)	4.27	4.27
CCCC(=O)N(C)[C@H](CC(C)C)C(=O)N[C@@H]1C(=O)N[C@H]([C@@H](C)CC)[C@@H](O)CC(=O)O[C@@H](C(C)C)C(=O)N[C@@H](CC(C)C)C(=O)N2CCC[C@H]2C(=O)N(C)[C@@H](Cc2ccc(OC)cc2)C(=O)O[C@@H]1C [8BSHPL1, [Hiv]^3-[Butyryl]^8-didemnin A] (Butyryl-[dNMeL]T[X2][Hiv]LP[NMeY](Me); ester 2-C)	1.04	1.04
CCCCNC(=S)N(C)[C@H](CC(C)C)C(=O)N[C@@H]1C(=O)N[C@H]([C@@H](C)CC)[C@@H](O)CC(=O)O[C@@H](C(C)C)C(=O)[C@H](C)C(=O)N[C@@H](CC(C)C)C(=O)N2CCC[C@H]2C(=O)N(C)[C@@H](Cc2ccc(OC)cc2)C(=O)O[C@@H]1C [8BTSAPL1, [Butylthiourea]^8-didemnin A]	0.945	0.945
CCCCNC(=O)N(C)[C@H](CC(C)C)C(=O)N[C@@H]1C(=O)N[C@H]([C@@H](C)CC)[C@@H](O)CC(=O)O[C@@H](C(C)C)C(=O)[C@H](C)C(=O)N[C@@H](CC(C)C)C(=O)N2CCC[C@H]2C(=O)N(C)[C@@H](Cc2ccc(OC)cc2)C(=O)O[C@@H]1C [8BUSAPL1, [Butylurea]^8-didemnin A] ({NHBu-CO}-[dNMeL]T[X1]LP[NMeY](Me); ester 2-C)	0.0959	0.0959
CCCCCC(=O)N(C)[C@H](CC(C)C)C(=O)N[C@@H]1C(=O)N[C@H]([C@@H](C)CC)[C@@H](O)CC(=O)O[C@@H](C(C)C)C(=O)N[C@@H](CC(C)C)C(=O)N2CCC[C@H]2C(=O)N(C)[C@@H](Cc2ccc(OC)cc2)C(=O)O[C@@H]1C [8HSHPL1, [Hiv]^3-[hexanoyl]^8-didemnin A] (Hexanoyl-[dNMeL]T[X2][Hiv]LP[NMeY](Me); ester 2-C)	10.1	10.1
CC[C@H](C)[C@H]1NC(=O)[C@@H](NC(=O)[C@@H](CC(C)C)N(C)C(=O)C(C)C)[C@@H](C)OC(=O)[C@H](Cc2ccc(OC)cc2)N(C)C(=O)[C@@H]2CCCN2C(=O)[C@H](CC(C)C)NC(=O)[C@H](C(C)C)OC(=O)C[C@@H]1O [8ISHPL1, [Hiv]^3-[isobutyryl]^8-didemnin A] (Isobutyryl-[dNMeL]T[X2][Hiv]LP[NMeY](Me); ester 2-C)	0.522	0.522
CC[C@H](C)[C@H]1NC(=O)[C@@H](NC(=O)[C@@H](CC(C)C)N(C)C(=O)C(C)C)[C@@H](C)OC(=O)[C@H](Cc2ccc(OC)cc2)N(C)C(=O)[C@@H]2CCCN2C(=O)[C@H](CC(C)C)NC(=O)[C@H](C(C)C)NC(=O)C[C@@H]1O [8ISVPL1, [Val]^3-[Isobutyryl]^8-didemnin A] (Isobutyryl-[dNMeL]T[X2]VLP[NMeY](Me); ester 2-C)	0.105	0.105
CC[C@H](C)[C@H]1NC(=O)[C@@H](NC(=O)[C@@H](CC(C)C)N(C)S(C)(=O)=O)[C@@H](C)OC(=O)[C@H](Cc2ccc(OC)cc2)N(C)C(=O)[C@@H]2CCCN2C(=O)[C@H](CC(C)C)NC(=O)[C@@H](C)C(=O)[C@H](C(C)C)OC(=O)C[C@@H]1O [8MSAPL1, [Methylsulphonyl]^8-didemnin A] (Ms-[dNMeL]T[X1]LP[NMeY](Me); ester 2-C)	0.979	0.979
CC[C@H](C)[C@H]1NC(=O)[C@@H](NC(=O)[C@@H](CC(C)C)N(C)C(=O)[C@@H]2CCCN2C(=O)OC(C)(C)C)[C@@H](C)OC(=O)[C@H](Cc2ccc(OC)cc2)N(C)C(=O)[C@@H]2CCCN2C(=O)[C@H](CC(C)C)NC(=O)[C@H](C(C)C)OC(=O)C[C@@H]1O [8PSHPL2, [Hiv]^3-[Boc-Pro]^8-didemnin A] (Boc-P[dNMeL]T[X2][Hiv]LP[NMeY](Me); ester 3-C)	0.922	0.922
CC[C@H](C)[C@H]1NC(=O)[C@@H](NC(=O)[C@@H](CC(C)C)N(C)C(=S)Nc2ccccc2)[C@@H](C)OC(=O)[C@H](Cc2ccc(OC)cc2)N(C)C(=O)[C@@H]2CCCN2C(=O)[C@H](CC(C)C)NC(=O)[C@@H](C)C(=O)[C@H](C(C)C)OC(=O)C[C@@H]1O [8PTSAPL1, [Pheylthiourea]^8-didemnin A] (X5-[dNMeL]T[X1]LP[NMeY](Me); ester 2-C)	0.927	0.927
CC[C@H](C)[C@H]1NC(=O)[C@@H](NC(=O)[C@@H](CC(C)C)N(C)C(=O)Nc2ccccc2)[C@@H](C)OC(=O)[C@H](Cc2ccc(OC)cc2)N(C)C(=O)[C@@H]2CCCN2C(=O)[C@H](CC(C)C)NC(=O)[C@@H](C)C(=O)[C@H](C(C)C)OC(=O)C[C@@H]1O [8PUSAPL1, [Phenylurea]^8-didemnin A] ({NHPh-CO}-[dNMeL]T[X1]LP[NMeY](Me); ester 2-C)	0.0942	0.0942
CC[C@H](C)[C@H]1NC(=O)[C@@H](NC(=O)[C@@H](CC(C)C)N(C)C(=O)[C@@H](NC(=O)C(C)C)C(C)C)[C@@H](C)OC(=O)[C@H](Cc2ccc(OC)cc2)N(C)C(=O)[C@@H]2CCCN2C(=O)[C@H](CC(C)C)NC(=O)[C@H](C(C)C)OC(=O)C[C@@H]1O [8V9ISHPL1, [Hiv]^3-[Val]^8-[Isobutyryl]^9-didemnin A] (Isobutyryl-V[dNMeL]T[X2][Hiv]LP[NMeY](Me); ester 3-C)	9.46	9.46
CC[C@H](C)[C@H]1NC(=O)[C@@H](NC(=O)[C@@H](CC(C)C)N(C)C(=O)[C@@H](N)C(C)C)[C@@H](C)OC(=O)[C@H](Cc2ccc(OC)cc2)N(C)C(=O)[C@@H]2CCCN2C(=O)[C@H](CC(C)C)NC(=O)[C@H](C(C)C)OC(=O)C[C@@H]1O [8VSHPL1, [Hiv]^3-[Val]^8-didemnin A] (H-V[dNMeL]T[X2][Hiv]LP[NMeY](Me); ester 3-C)	1.01	1.01
CC[C@H](C)[C@H]1NC(=O)[C@@H](NC(=O)[C@@H](CC(C)C)N(C)C(=O)[C@@H](NC(=O)OC(C)(C)C)C(C)C)[C@@H](C)OC(=O)[C@H](Cc2ccc(OC)cc2)N(C)C(=O)[C@@H]2CCCN2C(=O)[C@H](CC(C)C)NC(=O)[C@H](C(C)C)OC(=O)C[C@@H]1O [8VSHPL2, [Hiv]^3-[Boc-Val]^8-didemnin A] (Boc-V[dNMeL]T[X2][Hiv]LP[NMeY](Me); ester 3-C)	9.21	9.21
CC[C@H](C)[C@H]1NC(=O)[C@@H](NC(=O)[C@@H](CC(C)C)N(C)C(=O)[C@@H]2CCCN2C(=O)[C@H](C)NC(=O)OC(C)(C)C)[C@@H](C)OC(=O)[C@H](Cc2ccc(OC)cc2)N(C)C(=O)[C@@H]2CCCN2C(=O)[C@H](CC(C)C)NC(=O)[C@H](C(C)C)OC(=O)C[C@@H]1O [9BASHPL2, [Hiv]^3-[Boc-Ala]^9-aplidine] (Boc-AP[dNMeL]T[X2][Hiv]LP[NMeY](Me); ester 4-C)	8.65	8.65
CC[C@H](C)[C@H]1NC(=O)[C@@H](NC(=O)[C@@H](CC(C)C)N(C)C(=O)[C@@H]2CCCN2C(=O)C(C)C)[C@@H](C)OC(=O)[C@H](Cc2ccc(OC)cc2)N(C)C(=O)[C@@H]2CCCN2C(=O)[C@H](CC(C)C)NC(=O)[C@H](C(C)C)OC(=O)C[C@@H]1O [9ISHPL1, [Hiv]^3-[Isobutyryl]^9-aplidine] (Isobutyryl-P[dNMeL]T[X2][Hiv]LP[NMeY](Me); ester 3-C)	0.474	0.474
CC[C@H](C)[C@H]1NC(=O)[C@@H](NC(=O)[C@@H](CC(C)C)N(C)C(=O)[C@@H]2CCCN2C(=O)C(C)C)[C@@H](C)OC(=O)[C@H](Cc2ccc(OC)cc2)N(C)C(=O)[C@@H]2CCCN2C(=O)[C@H](CC(C)C)NC(=O)[C@H](C(C)C)NC(=O)C[C@@H]1O [9ISVPL1, [Val]^3-[Isobutyryl]^9-aplidine] (Isobutyryl-P[dNMeL]T[X2]VLP[NMeY](Me); ester 3-C)	0.475	0.475
CC[C@H](C)[C@H]1NC(=O)[C@@H](NC(=O)[C@@H](CC(C)C)N(C)C(=O)C2CCCN2C(=O)[C@@H](C)O)[C@@H](C)OC(=O)[C@H](Cc2ccc(OC)cc2)N(C)C(=O)[C@@H]2CCCN2C(=O)[C@H](CC(C)C)NC(=O)[C@H](C(C)C)OC(=O)C[C@@H]1O (stereo partly drawn) [9LSHPL1(D), [Hiv]^3-[D-Lac]^9-aplidine] (H-[dLac][ξP][dNMeL]T[X2][Hiv]LP[NMeY](Me); ester 4-C)	0.947	0.947
CC[C@H](C)[C@H]1NC(=O)[C@@H](NC(=O)[C@@H](CC(C)C)N(C)C(=O)C2CCCN2C(=O)[C@H](C)O)[C@@H](C)OC(=O)[C@H](Cc2ccc(OC)cc2)N(C)C(=O)[C@@H]2CCCN2C(=O)[C@H](CC(C)C)NC(=O)[C@H](C(C)C)OC(=O)C[C@@H]1O (stereo partly drawn) [9LSHPL1(L), [Hiv]^3-[L-Lac]^9-aplidine, reference compound] (H-[Lac][ξP][dNMeL]T[X2][Hiv]LP[NMeY](Me); ester 4-C)	0.947	0.947
CC[C@H](C)[C@H]1NC(=O)[C@@H](NC(=O)[C@@H](CC(C)C)N(C)C(=O)C2CCCN2C(=O)[C@H](C)O[Si](C)(C)C(C)(C)C)[C@@H](C)OC(=O)[C@H](Cc2ccc(OC)cc2)N(C)C(=O)[C@@H]2CCCN2C(=O)[C@H](CC(C)C)NC(=O)[C@H](C(C)C)OC(=O)C[C@@H]1O (stereo partly drawn) [9LSHPL2(L), [Hiv]^3-[L-Lac(OTBDMS)]^9-aplidine] (X3-[ξP][dNMeL]T[X2][Hiv]LP[NMeY](Me); ester 3-C)	8.55	8.55
CC[C@H](C)[C@H]1NC(=O)[C@@H](NC(=O)[C@@H](CC(C)C)N(C)C(=O)C2CCCN2C(=O)[C@H](C)O)[C@@H](C)OC(=O)[C@H](Cc2ccc(OC)cc2)N(C)C(=O)[C@@H]2CCCN2C(=O)[C@H](CC(C)C)NC(=O)[C@H](C(C)C)NC(=O)C[C@@H]1O (stereo partly drawn) [9LSVPL1(L), [Val]^3-[L-Lac]^9-aplidine] (H-[Lac][ξP][dNMeL]T[X2]VLP[NMeY](Me); ester 4-C)	0.948	0.948
